From patent US20210308034A1, “PREBIOTIC COMPOSITIONS AND METHODS FOR MAINTAINING A HEALTHY SKIN MICROBIOTA” (KIMBERLY-CLARK WORLDWIDE, INC., priority 2018, published 2021)

Key:
Format in all cases: cell-based
[1] = test system: Corynebacterium minutissimum (ATCC 23348); test: Carbohydrate Screening Test Method (Biolog phenotype microarray), Bacteria Code A; conditions: Pathogenic; carbon microarray plate, OD 600 nm, 36 hr, 33° C.; positive = more than 0.05 OD units above zero; blank cell = not utilized
Text: (§1) After creating desired ratios of various commensal skin bacteria in a healthy skin microbiome, 188 different carbohydrate sources were screened as the next step in determining potential prospects for skin microbiota balancing agents. The screening process was set up to determine which carbohydrate sources promoted commensal and/or pathogenic bacteria as well as to obtain individual and combinations of carbohydrate sources that could serve as microbiota balancing agents that can support or maintain the healthy proportions of commensal skin bacteria of Corynebacterium, Staphylococcus, and Micrococcus. The screening was conducted utilizing Biolog phenotype microarray plates (Hayward, Calif.). Table 1 provides a coded list of the commensal and pathogenic skin bacteria that the carbohydrates were screened against.
(§2) Table 2 provides the results of screening various carbohydrate sources against the commensal and pathogenic bacteria codes listed in Table 1. The Bacteria Codes B, D, E, I, and J are commensal bacteria and are shaded in Table 2 for references purposes. The bacteria codes were each placed in a carbon microarray plate and screened through the Carbohydrate Screening Test Method, as described in the Test Methods section herein. If a particular bacteria code utilized a specific carbohydrate source as described in the Carbohydrate Screening Test Method, then the corresponding cell in Table 2 was marked with a Y (short for “Yes”). […] Many of the carbohydrate sources were utilized by both commensal and pathogenic bacteria, and as such, would not provide an advantage for selective growth of the commensal bacteria. However, some of the carbohydrate sources were only used by commensal bacteria and were identified for further testing as described herein.
(§3) The study employed 10 representative skin bacteria; Staphylococcus epidermidis ATCC 14990, Staphylococcus epidermidis M23864:W2, Staphylococcus aureus ATCC 6538, Staphylococcus aureus ATCC 25904 (Newman), Pseudomonas aeruginosa ATCC 9027, Micrococcus luteus ATCC […], Micrococcus luteus SK58, Klebsiella pneumoniae ATCC BAA-2146, Corynebacterium amycolatum SK46, and Corynebacterium minutissimum ATCC 23348. Cultures were started from freezer bead stocks by placing a single bead into 20 mL of tryptic soy broth (TSB) for all organisms except C. amycolatum SK46 and C. minutissimum ATCC 23348, which were placed into brain heart infusion (BHI) broth. Cultures were grown for about 24 hr at 37° C. except M. luteus ATCC 49732 and M. luteus SK58, which were grown at 30° C. A passage of the culture was made using a sterile swab and streaked onto two M9*2 agar plates to prepare the incubated culture for the phenotype microarray pate according to Table 4. Plates were incubated for about 24 hr at 37° C. except for M. luteus ATCC 49732 and M. luteus SK58, which were incubated at 30° C. for 24 hr.
(§4) All cultures were harvested and washed before inoculation into the carbon microarray plate (BiOLOG, Hayward Calif.), with Biolog Plates PM1 and PM2 each having a source definition of Carbon. The bacteria on the M9*2 agar was suspended via agitation with an inoculating loop in 1 mL of M9*1 media for collection in a 1.7 mL micro centrifuge tube, as noted in Table 4. The bacteria was suspended again in M9*1 media, agitated, and collected into the same 1.7 mL microcentrifuge tube used in the previous step. The tube was centrifuged for 5 minutes at 4,000×G, supernatant decanted, the pellet was resuspended in 1 mL of M9*1 media, and vortex. This washing process was repeated for a total of 4 times.
(§5) A tenfold dilution in M9*1 media was performed using 1 mL of the washed bacterial culture. Of the tenfold dilution 200 μL was placed in an untreated 96-well plate (Falcon, Pasadena Tx.) for an initial optical density (OD) reading at a wavelength of 600 nm. The OD was used to correlate to colony forming units (CFU) per milliliter by using linear regression lines for each organism. […]

[2] = test system: Micrococcus luteus (ATCC 49732); test: Carbohydrate Screening Test Method (Biolog phenotype microarray), Bacteria Code D; conditions: Commensal; carbon microarray plate, OD 600 nm, 36 hr, 33° C.; positive = more than 0.05 OD units above zero; blank cell = not utilized
Text: as §1, §2, §3, §4, §5

[3] = test system: Staphylococcus epidermidis (M23864:W2); test: Carbohydrate Screening Test Method (Biolog phenotype microarray), Bacteria Code J; conditions: Commensal; carbon microarray plate, OD 600 nm, 36 hr, 33° C.; positive = more than 0.05 OD units above zero; blank cell = not utilized
[4] = test system: Staphylococcus epidermidis (ATCC 14990); test: Carbohydrate Screening Test Method (Biolog phenotype microarray), Bacteria Code I; conditions: Commensal; carbon microarray plate, OD 600 nm, 36 hr, 33° C.; positive = more than 0.05 OD units above zero; blank cell = not utilized
Text: as §1, §2, §3, §4, §5

[5] = test system: Corynebacterium jeikum (ATCC 33033); test: Carbohydrate Screening Test Method (Biolog phenotype microarray), Bacteria Code B; conditions: Commensal; carbon microarray plate, OD 600 nm, 36 hr, 33° C.; positive = more than 0.05 OD units above zero; blank cell = not utilized
Summary of the method: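 Strain from M9*2 agar was suspended in M9*1 medium, washed and inoculated into Biolog PM1/PM2 carbon plates. Carbohydrate use was scored yes/no, and growth rate and maximum yield were derived with GrowthRates 2.1, with max yields used for commensal ratios.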

[6] = test system: Klebsiella pneumoniae (ATCC BAA-2146); conditions: Pathogenic; carbon microarray plate, OD 600 nm, 36 hr, 33° C.; positive = more than 0.05 OD units above zero; blank cell = not utilized
[7] = test system: Micrococcus luteus (SK58); test: Carbohydrate Screening Test Method (Biolog phenotype microarray), Bacteria Code E; conditions: Commensal; carbon microarray plate, OD 600 nm, 36 hr, 33° C.; positive = more than 0.05 OD units above zero; blank cell = not utilized
Summary of the method: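 Each commensal strain grown in Biolog carbon phenotype microarray plates with single carbohydrate sources. Growth curves fitted with GrowthRates 2.1 to give growth rate and maximum yield. Max yields used to calculate predicted co-culture ratios between Corynebacterium, Staphylococcus and Micrococcus, compared with desired ratios of 1.3, 1.4 and 1.1.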

[8] = test system: Staphylococcus aureus (ATCC 25904) (Newman); test: Carbohydrate Screening Test Method (Biolog phenotype microarray), Bacteria Code H; conditions: Pathogenic; carbon microarray plate, OD 600 nm, 36 hr, 33° C.; positive = more than 0.05 OD units above zero; blank cell = not utilized
Text: as §1, §2, §3, §4, §5

[9] = test system: Pseudomonas aeruginosa (ATCC 9027); conditions: Pathogenic; carbon microarray plate, OD 600 nm, 36 hr, 33° C.; positive = more than 0.05 OD units above zero; blank cell = not utilized
Summary of the method: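 Carbon-source utilisation screen on Biolog PM1/PM2 plates: strain grown in TSB then on M9*2 agar, each ~24 h at 37 °C, washed four times in M9*1 and diluted tenfold. OD600 correlated to CFU/mL; each carbohydrate scored Yes when utilised.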

CC(N)=O [Acetamide]
Y: Carbohydrate Screening Results, Bacteria Code A [1]

N#C[C@H](O[C@@H]1O[C@H](CO[C@@H]2O[C@H](CO)[C@@H](O)[C@H](O)[C@H]2O)[C@@H](O)[C@H](O)[C@H]1O)c1ccccc1 [Amygdalin]
Y: Carbohydrate Screening Results, Bacteria Code D [2] | Carbohydrate Screening Results, Bacteria Code J [3]

C/C(=C/C(=O)O)C(=O)O [Citraconic Acid]
Y: Carbohydrate Screening Results, Bacteria Code D [2] | Carbohydrate Screening Results, Bacteria Code I [4] | Carbohydrate Screening Results, Bacteria Code J [3]

OC[C@H]1O[C@@](CO)(O[C@H]2O[C@H](CO)[C@@H](O)[C@H](O)[C@H]2O)[C@@H](O[C@H]2O[C@H](CO)[C@@H](O)[C@H](O)[C@H]2O)[C@@H]1O [D-Melezitose]
Y: Carbohydrate Screening Results, Bacteria Code D [2] | Carbohydrate Screening Results, Bacteria Code I [4]

O=C(O)[C@@H](O)[C@@H](O)[C@H](O)[C@@H](O)C(=O)O [D-Saccharic Acid]
Y: Carbohydrate Screening Results, Bacteria Code A [1]

OC[C@H]1O[C@@H](n2cnc3c(O)ncnc32)[C@H](O)[C@@H]1O [Inosine]
Y: Carbohydrate Screening Results, Bacteria Code B [5] | Carbohydrate Screening Results, Bacteria Code C [6] | Carbohydrate Screening Results, Bacteria Code E [7] | Carbohydrate Screening Results, Bacteria Code H [8]

C[C@H](N)C(N)=O [L-Alaninamide]
Y: Carbohydrate Screening Results, Bacteria Code D [2] | Carbohydrate Screening Results, Bacteria Code J [3]

C[C@H](O)C(=O)O [L-Lactic Acid]
Y: Carbohydrate Screening Results, Bacteria Code A [1] | Carbohydrate Screening Results, Bacteria Code B [5] | Carbohydrate Screening Results, Bacteria Code E [7] | Carbohydrate Screening Results, Bacteria Code I [4]

CSCC[C@H](N)C(=O)O [L-Methionine]
Y: Carbohydrate Screening Results, Bacteria Code A [1]

O=C(CO)[C@@H](O)[C@H](O)[C@@H](O)CO [L-Sorbose]
Y: Carbohydrate Screening Results, Bacteria Code C [6] | Carbohydrate Screening Results, Bacteria Code D [2] | Carbohydrate Screening Results, Bacteria Code F [9]

O=C(O)CC(=O)O [Malonic Acid]
Y: Carbohydrate Screening Results, Bacteria Code C [6] | Carbohydrate Screening Results, Bacteria Code D [2] | Carbohydrate Screening Results, Bacteria Code F [9]

OC[C@H]1O[C@H](O[C@H]2[C@H](O)[C@@H](O)[C@H](O)O[C@@H]2CO)[C@H](O)[C@@H](O)[C@@H]1O [Maltose]
Y: Carbohydrate Screening Results, Bacteria Code B [5] | Carbohydrate Screening Results, Bacteria Code C [6] | Carbohydrate Screening Results, Bacteria Code E [7] | Carbohydrate Screening Results, Bacteria Code F [9] | Carbohydrate Screening Results, Bacteria Code H [8] | Carbohydrate Screening Results, Bacteria Code I [4] | Carbohydrate Screening Results, Bacteria Code J [3]

CC(=O)N[C@H]1C(O)O[C@H](CO)[C@@H](O)[C@@H]1O (stereo partly drawn) [N-Acetyl-D-Glucosamine]
Y: Carbohydrate Screening Results, Bacteria Code A [1] | Carbohydrate Screening Results, Bacteria Code B [5] | Carbohydrate Screening Results, Bacteria Code E [7]

O=C(O)C(=O)C(C(=O)O)C(O)C(=O)O (stereo not drawn) [Oxalomalic Acid]
Y: Carbohydrate Screening Results, Bacteria Code D [2] | Carbohydrate Screening Results, Bacteria Code J [3]

CC(=O)C(=O)O [Pyruvic Acid]
Y: Carbohydrate Screening Results, Bacteria Code B [5] | Carbohydrate Screening Results, Bacteria Code D [2] | Carbohydrate Screening Results, Bacteria Code F [9] | Carbohydrate Screening Results, Bacteria Code I [4] | Carbohydrate Screening Results, Bacteria Code J [3]

OCc1ccccc1O[C@@H]1O[C@H](CO)[C@@H](O)[C@H](O)[C@H]1O [Salicin]
Y: Carbohydrate Screening Results, Bacteria Code C [6] | Carbohydrate Screening Results, Bacteria Code D [2] | Carbohydrate Screening Results, Bacteria Code F [9]

OC[C@H]1O[C@H](OC[C@H]2O[C@H](OC[C@H]3O[C@H](O[C@]4(CO)O[C@H](CO)[C@@H](O)[C@@H]4O)[C@H](O)[C@@H](O)[C@@H]3O)[C@H](O)[C@@H](O)[C@H]2O)[C@H](O)[C@@H](O)[C@H]1O [Stachyose]
Y: Carbohydrate Screening Results, Bacteria Code C [6] | Carbohydrate Screening Results, Bacteria Code D [2] | Carbohydrate Screening Results, Bacteria Code F [9]

NC(=O)CCC(=O)O [Succinamic Acid]
Y: Carbohydrate Screening Results, Bacteria Code D [2] | Carbohydrate Screening Results, Bacteria Code I [4]

O=C(O)CCC(=O)O [Succinic Acid]
Y: Carbohydrate Screening Results, Bacteria Code A [1]

Cc1cn([C@H]2C[C@H](O)[C@@H](CO)O2)c(=O)[nH]c1=O [Thymidine]
Y: Carbohydrate Screening Results, Bacteria Code A [1] | Carbohydrate Screening Results, Bacteria Code B [5] | Carbohydrate Screening Results, Bacteria Code E [7]

OC[C@H]1O[C@@H]2O[C@H]3[C@H](O)[C@@H](O)[C@@H](O[C@H]4[C@H](O)[C@@H](O)[C@@H](O[C@H]5[C@H](O)[C@@H](O)[C@@H](O[C@H]6[C@H](O)[C@@H](O)[C@@H](O[C@H]7[C@H](O)[C@@H](O)[C@@H](O[C@H]8[C@H](O)[C@@H](O)[C@@H](O[C@H]1[C@H](O)[C@H]2O)O[C@@H]8CO)O[C@@H]7CO)O[C@@H]6CO)O[C@@H]5CO)O[C@@H]4CO)O[C@@H]3CO [β-Cyclodextrin]
Y: Carbohydrate Screening Results, Bacteria Code D [2] | Carbohydrate Screening Results, Bacteria Code I [4] | Carbohydrate Screening Results, Bacteria Code J [3]

CO[C@@H]1O[C@H](CO)[C@@H](O)[C@H](O)[C@H]1O [β-Methyl-D-Glucoside]
Y: Carbohydrate Screening Results, Bacteria Code B [5] | Carbohydrate Screening Results, Bacteria Code C [6] | Carbohydrate Screening Results, Bacteria Code E [7] | Carbohydrate Screening Results, Bacteria Code H [8]

Gelatin
Y: Carbohydrate Screening Results, Bacteria Code D [2] | Carbohydrate Screening Results, Bacteria Code J [3]

Maltotriose
Y: Carbohydrate Screening Results, Bacteria Code A [1] | Carbohydrate Screening Results, Bacteria Code B [5] | Carbohydrate Screening Results, Bacteria Code C [6] | Carbohydrate Screening Results, Bacteria Code E [7] | Carbohydrate Screening Results, Bacteria Code F [9] | Carbohydrate Screening Results, Bacteria Code H [8] | Carbohydrate Screening Results, Bacteria Code I [4] | Carbohydrate Screening Results, Bacteria Code J [3]
